Assay results from patent publication US20240109836A1, “NON-HALL[…] ANALOGS FOR TREATMENT OF NEUROLOGICAL AND PSYCHIATRIC DISORDERS” (The Trustees of Columbia University in the City of New York, priority 2021, published 2024).

Experiments:
Experiment in all cases: SafetyScreen44 (Panlabs) panel
Format in all cases: binding
Details in all cases: 10 μM
[1] = molecular target: T1, NET (Homo sapiens, UniProt P23975)
T1 construct: Panlabs (SafetyScreen44 panel)
Description: (§1) Other targets included with less than ≥50% stimulation at a concentration of 10 μM: Acetylcholinesterase, COX-1, COX-2, MAO-A, PDE3A, PDE4D2, Protein Tyrosine Kinase (LCK), Adenosine A2A, Adrenergic α1A, Adrenergic α2A, Adrenergic β1, Adrenergic β2, Androgen (Testosterone), Calcium Channel L-Type (Dihydropyridine), CB1, CB2, Cholecystokinin CCK1 (CCKA), Dopamine D1, Dopamine D2S, Endothelin ETA, GABAA (Flunitrazepam, Central), Glucocorticoid, Glutamate-NMDA (Agonism), Histamine H1, Histamine H2, Muscarinic M1, Muscarinic M2, Muscarinic M3, Nicotinic Acetylcholine α4β2, (Cytisine), DOP, KOP, MOP, Potassium Channel [KA], Potassium Channel hERG, Serotonin (5-Hydroxytryptamine) 5-HT1A, 5-HT1B, 5-HT3, Na-channel site 2, DAT, NET, SERT, Vasopressin V1A

[2] = molecular target: T2, Histamine H2 (Homo sapiens, UniProt P25021)
T2 construct: Panlabs (SafetyScreen44 panel)
Description: as §1

[3] = tested on: Glutamate-NMDA (Agonism)
Description: as §1

[4] = molecular target: T3, SERT (Homo sapiens, UniProt P31645)
T3 construct: Panlabs (SafetyScreen44 panel)
T3 sequence (P31645 whole entry, species assumed): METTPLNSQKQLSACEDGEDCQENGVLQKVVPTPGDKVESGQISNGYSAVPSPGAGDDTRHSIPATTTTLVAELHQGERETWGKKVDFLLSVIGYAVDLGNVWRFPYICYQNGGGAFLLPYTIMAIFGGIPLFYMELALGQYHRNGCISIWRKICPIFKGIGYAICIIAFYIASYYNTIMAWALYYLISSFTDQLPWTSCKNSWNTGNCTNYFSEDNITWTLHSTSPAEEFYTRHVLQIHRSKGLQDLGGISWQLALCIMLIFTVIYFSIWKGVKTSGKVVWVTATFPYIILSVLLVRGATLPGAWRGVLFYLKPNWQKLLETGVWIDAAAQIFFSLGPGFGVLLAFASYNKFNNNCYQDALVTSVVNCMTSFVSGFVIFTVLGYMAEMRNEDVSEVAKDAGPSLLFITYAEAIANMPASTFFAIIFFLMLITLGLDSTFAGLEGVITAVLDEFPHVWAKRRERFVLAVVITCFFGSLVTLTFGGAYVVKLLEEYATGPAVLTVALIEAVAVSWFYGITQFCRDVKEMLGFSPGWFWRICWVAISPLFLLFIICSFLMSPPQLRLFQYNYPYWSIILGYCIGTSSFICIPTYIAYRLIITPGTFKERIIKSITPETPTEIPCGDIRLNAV
Description: as §1

[5] = molecular target: T4, Dopamine D1 (Homo sapiens, UniProt P21728)
T4 construct: Panlabs (SafetyScreen44 panel)
T4 sequence (P21728 whole entry): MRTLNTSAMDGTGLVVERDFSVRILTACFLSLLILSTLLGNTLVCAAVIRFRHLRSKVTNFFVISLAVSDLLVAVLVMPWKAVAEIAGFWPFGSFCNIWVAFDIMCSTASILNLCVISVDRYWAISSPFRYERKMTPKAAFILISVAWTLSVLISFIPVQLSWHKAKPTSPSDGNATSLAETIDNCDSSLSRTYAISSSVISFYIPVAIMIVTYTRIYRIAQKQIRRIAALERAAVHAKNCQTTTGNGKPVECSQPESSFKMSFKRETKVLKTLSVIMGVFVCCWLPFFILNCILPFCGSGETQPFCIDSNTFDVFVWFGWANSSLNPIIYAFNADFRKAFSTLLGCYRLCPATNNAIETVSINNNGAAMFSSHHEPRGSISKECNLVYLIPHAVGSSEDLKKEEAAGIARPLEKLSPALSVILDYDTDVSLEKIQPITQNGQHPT
Description: as §1

[6] = molecular target: T5, Muscarinic M1 (Homo sapiens, UniProt P11229)
T5 construct: Panlabs (SafetyScreen44 panel)
T5 sequence (P11229 whole entry): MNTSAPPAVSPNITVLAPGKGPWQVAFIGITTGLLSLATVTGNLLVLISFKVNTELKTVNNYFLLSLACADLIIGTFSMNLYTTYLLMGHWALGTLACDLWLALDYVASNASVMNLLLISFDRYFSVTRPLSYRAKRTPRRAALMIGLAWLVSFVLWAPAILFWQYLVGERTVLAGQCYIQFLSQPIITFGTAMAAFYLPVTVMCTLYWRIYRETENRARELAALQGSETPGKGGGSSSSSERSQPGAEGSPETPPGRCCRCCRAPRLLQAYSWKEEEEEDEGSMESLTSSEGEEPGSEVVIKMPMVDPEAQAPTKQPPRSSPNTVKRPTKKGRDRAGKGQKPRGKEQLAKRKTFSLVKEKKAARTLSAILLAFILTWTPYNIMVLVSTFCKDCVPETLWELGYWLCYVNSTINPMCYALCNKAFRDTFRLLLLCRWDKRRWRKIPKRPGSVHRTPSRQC
Description: as §1

[7] = molecular target: T6, CB1 (Homo sapiens, UniProt P21554)
T6 construct: Panlabs (SafetyScreen44 panel)
T6 sequence (P21554 whole entry): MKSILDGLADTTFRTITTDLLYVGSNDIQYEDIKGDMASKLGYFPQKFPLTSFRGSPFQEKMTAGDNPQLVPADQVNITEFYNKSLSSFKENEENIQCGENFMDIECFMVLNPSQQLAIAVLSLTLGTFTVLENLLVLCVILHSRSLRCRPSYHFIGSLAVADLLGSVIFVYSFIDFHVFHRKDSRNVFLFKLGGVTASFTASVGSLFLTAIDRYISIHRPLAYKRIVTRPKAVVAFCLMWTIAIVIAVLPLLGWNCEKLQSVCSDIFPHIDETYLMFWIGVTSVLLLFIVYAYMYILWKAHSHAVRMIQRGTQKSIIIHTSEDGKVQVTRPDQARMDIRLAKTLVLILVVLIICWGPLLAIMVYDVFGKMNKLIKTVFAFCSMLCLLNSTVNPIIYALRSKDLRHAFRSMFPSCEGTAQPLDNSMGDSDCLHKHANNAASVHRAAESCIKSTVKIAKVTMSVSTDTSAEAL
Description: as §1

[8] = molecular target: T7, MOP (Homo sapiens, UniProt P35372)
T7 construct: Panlabs (SafetyScreen44 panel)
Description: as §1

[9] = molecular target: T8, DOP (Homo sapiens, UniProt P41143)
T8 construct: Panlabs (SafetyScreen44 panel)
Description: as §1

[10] = tested on: 5-HT1B
Description: as §1

[11] = molecular target: T9, Histamine H1 (Homo sapiens, UniProt P35367)
T9 construct: Panlabs (SafetyScreen44 panel)
Description: as §1

[12] = molecular target: T10, Adrenergic β1 (Homo sapiens, UniProt P08588)
T10 construct: Panlabs (SafetyScreen44 panel)
T10 sequence (P08588 whole entry): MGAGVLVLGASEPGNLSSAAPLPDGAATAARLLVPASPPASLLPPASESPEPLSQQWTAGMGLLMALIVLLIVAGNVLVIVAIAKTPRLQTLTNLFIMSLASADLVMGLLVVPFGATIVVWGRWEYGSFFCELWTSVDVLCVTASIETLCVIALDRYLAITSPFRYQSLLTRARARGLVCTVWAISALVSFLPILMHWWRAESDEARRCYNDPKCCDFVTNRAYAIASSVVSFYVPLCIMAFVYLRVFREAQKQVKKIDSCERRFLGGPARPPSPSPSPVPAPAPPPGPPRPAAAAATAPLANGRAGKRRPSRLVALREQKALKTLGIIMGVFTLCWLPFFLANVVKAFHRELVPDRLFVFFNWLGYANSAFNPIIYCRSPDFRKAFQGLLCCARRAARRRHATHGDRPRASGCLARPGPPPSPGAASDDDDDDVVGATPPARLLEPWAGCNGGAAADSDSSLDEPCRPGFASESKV
Description: as §1

[13] = molecular target: T11, Adrenergic α1A (Rattus norvegicus, UniProt P43140)
T11 construct: Panlabs (SafetyScreen44 panel)
Description: as §1

[14] = molecular target: T12, Endothelin ETA (Homo sapiens, UniProt P25101)
T12 construct: Panlabs (SafetyScreen44 panel)
Description: as §1

[15] = molecular target: T13, CB2 (Homo sapiens, UniProt P34972)
T13 construct: Panlabs (SafetyScreen44 panel)
Description: as §1

[16] = molecular target: T14, Potassium Channel hERG (Homo sapiens, UniProt Q12809)
T14 construct: Panlabs (SafetyScreen44 panel)
T14 sequence (Q12809 whole entry): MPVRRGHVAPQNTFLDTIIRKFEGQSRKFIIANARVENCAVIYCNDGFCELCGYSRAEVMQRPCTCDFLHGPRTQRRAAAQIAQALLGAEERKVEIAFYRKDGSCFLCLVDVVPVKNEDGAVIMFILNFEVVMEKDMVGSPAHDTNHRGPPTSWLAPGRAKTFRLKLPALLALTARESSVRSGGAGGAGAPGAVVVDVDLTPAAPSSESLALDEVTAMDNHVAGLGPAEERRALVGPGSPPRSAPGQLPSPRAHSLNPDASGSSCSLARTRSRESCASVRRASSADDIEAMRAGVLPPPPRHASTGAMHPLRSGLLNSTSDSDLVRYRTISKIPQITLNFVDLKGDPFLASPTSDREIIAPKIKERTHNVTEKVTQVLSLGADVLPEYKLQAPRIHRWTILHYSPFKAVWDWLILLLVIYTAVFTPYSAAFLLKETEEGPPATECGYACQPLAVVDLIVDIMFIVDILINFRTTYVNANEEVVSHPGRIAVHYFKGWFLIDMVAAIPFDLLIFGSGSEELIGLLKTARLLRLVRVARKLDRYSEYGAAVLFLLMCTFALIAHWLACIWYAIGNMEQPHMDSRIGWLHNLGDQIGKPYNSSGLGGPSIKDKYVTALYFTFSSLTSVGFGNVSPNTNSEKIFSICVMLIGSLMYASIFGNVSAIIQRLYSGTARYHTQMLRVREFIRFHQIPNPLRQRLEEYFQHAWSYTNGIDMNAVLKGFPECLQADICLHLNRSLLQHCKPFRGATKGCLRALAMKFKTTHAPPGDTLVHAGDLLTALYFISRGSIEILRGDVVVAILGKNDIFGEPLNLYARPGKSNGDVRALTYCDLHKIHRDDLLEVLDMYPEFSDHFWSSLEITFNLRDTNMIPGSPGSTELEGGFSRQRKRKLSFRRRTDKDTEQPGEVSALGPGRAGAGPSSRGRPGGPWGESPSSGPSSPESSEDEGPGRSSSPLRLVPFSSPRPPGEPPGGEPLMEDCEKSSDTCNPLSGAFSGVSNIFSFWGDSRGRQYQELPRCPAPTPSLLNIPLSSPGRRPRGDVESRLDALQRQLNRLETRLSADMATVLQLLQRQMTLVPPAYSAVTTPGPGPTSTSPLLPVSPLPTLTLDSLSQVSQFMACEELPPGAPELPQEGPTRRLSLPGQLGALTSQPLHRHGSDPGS
Description: as §1

[17] = molecular target: T15, Dopamine D2S (Homo sapiens, UniProt P14416)
T15 construct: Panlabs (SafetyScreen44 panel)
Description: as §1

[18] = molecular target: T16, Serotonin (5-Hydroxytryptamine) 5-HT1A (Homo sapiens, UniProt P08908)
T16 construct: Panlabs (SafetyScreen44 panel)
Description: as §1

[19] = molecular target: T17, KOP (Homo sapiens, UniProt P41145)
T17 construct: Panlabs (SafetyScreen44 panel)
Description: as §1

[20] = tested on: Potassium Channel [KA]
Description: as §1

[21] = tested on: Na-channel site 2
Description: as §1

[22] = molecular target: T18, Adenosine A2A (Homo sapiens, UniProt P29274)
T18 construct: Panlabs (SafetyScreen44 panel)
Description: as §1

[23] = molecular target: T19, 5-HT3 (Homo sapiens, UniProt P46098)
T19 construct: Panlabs (SafetyScreen44 panel)
Description: as §1

[24] = molecular target: T20, Muscarinic M3 (Homo sapiens, UniProt P20309)
T20 construct: Panlabs (SafetyScreen44 panel)
T20 sequence (P20309 whole entry): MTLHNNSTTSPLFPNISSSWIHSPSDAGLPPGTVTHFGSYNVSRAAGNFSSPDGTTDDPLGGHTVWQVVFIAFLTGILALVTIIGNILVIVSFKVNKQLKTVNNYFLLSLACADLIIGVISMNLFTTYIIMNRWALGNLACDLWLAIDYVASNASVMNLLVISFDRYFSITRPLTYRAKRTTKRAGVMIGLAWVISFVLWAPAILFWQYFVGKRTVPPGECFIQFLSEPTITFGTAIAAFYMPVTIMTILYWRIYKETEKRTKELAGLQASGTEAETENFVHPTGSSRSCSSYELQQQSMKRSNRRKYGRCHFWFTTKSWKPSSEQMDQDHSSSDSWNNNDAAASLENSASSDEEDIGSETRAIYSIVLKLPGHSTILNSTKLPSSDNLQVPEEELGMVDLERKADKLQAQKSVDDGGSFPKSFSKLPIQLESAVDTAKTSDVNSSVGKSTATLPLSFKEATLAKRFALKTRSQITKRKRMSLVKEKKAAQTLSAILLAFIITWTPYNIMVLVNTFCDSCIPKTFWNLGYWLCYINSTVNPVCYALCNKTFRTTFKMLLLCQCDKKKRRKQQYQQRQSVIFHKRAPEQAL
Description: as §1

[25] = molecular target: T21, Vasopressin V1A (Homo sapiens, UniProt P37288)
T21 construct: Panlabs (SafetyScreen44 panel)
Description: as §1

Measured: % stimulation

T1 sequence (P23975 whole entry): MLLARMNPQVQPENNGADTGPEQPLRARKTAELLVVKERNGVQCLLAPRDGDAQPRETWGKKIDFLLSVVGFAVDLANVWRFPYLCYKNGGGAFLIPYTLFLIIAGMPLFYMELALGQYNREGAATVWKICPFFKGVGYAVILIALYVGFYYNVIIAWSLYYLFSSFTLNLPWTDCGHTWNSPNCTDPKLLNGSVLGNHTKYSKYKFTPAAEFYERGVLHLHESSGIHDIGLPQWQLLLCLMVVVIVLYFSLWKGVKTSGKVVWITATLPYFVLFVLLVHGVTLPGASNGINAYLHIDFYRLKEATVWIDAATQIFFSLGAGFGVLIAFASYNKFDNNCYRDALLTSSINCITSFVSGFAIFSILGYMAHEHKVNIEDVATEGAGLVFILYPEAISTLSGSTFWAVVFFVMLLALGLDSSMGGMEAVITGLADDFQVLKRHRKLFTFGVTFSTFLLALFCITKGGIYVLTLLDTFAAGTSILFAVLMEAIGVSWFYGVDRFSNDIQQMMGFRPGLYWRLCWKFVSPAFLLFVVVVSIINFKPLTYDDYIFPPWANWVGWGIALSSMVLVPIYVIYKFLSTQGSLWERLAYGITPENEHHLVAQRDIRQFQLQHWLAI

CCC(N)Cc1cc(OC)c(C)cc1OC (stereo not shown) [Ariadne (32), 1-(2,5-dimethoxy-4-methylphenyl)butan-2-amine]
< 50%: all assays above
